Measured values reported in publication PMC4303209, “A novel phosphatidylinositol 3-kinase (PI3K) inhibitor directs a potent FOXO-dependent, p53-independent cell cycle arrest phenotype characterized by the differential induction of a subset of FOXO-regulated genes” (Breast Cancer Research : BCR, 2014).

Test system: MCF-7 breast cancer cells
Experiment: Microarray gene expression analysis (Agilent whole human genome 4 x 44K; compound vs DMSO, LIMMA log2 fold change)
Assay type: cell-based

Cn1ncc2c(N3CCOCC3)nc(-c3cccc(O)c3)nc21 [ETP-45658]
PRNP log2FC: 0.370 | log2FC: 0.370 | AARS log2FC (Apoptosis genes, Gene 16): -0.198 | ABL1 log2FC (Apoptosis genes, Gene 25): -0.156 | ABR log2FC (Apoptosis genes, Gene 29): -0.380 | ACTN4 log2FC (Apoptosis genes, Gene 81): -0.260 | ACTN1 log2FC (Apoptosis genes, Gene 87): -0.609 | ACTN2 log2FC (Apoptosis genes, Gene 88): 0.099 | ACTN3 log2FC (Apoptosis genes, Gene 89): -0.693 | ACVR1 log2FC (Apoptosis genes, Gene 90): 0.534 | ACVR1B log2FC (Apoptosis genes, Gene 91): -0.563 | ADA log2FC (Apoptosis genes, Gene 100): -0.213 | ADAM8 log2FC (Apoptosis genes, Gene 101): -0.364 | ADAR log2FC (Apoptosis genes, Gene 103): -0.197 | ADCYAP1 log2FC (Apoptosis genes, Gene 116): 0.068 | ADD1 log2FC (Apoptosis genes, Gene 118): -0.295 | ADM log2FC (Apoptosis genes, Gene 133): -0.856 | ADORA1 log2FC (Apoptosis genes, Gene 134): -2.012 | ADORA2A log2FC (Apoptosis genes, Gene 135): -0.309 | ADRB1 log2FC (Apoptosis genes, Gene 153): -0.090 | AES log2FC (Apoptosis genes, Gene 166): -0.293 | AGT log2FC (Apoptosis genes, Gene 183): -0.104 | AHR log2FC (Apoptosis genes, Gene 196): 0.995 | AKT1 log2FC (Apoptosis genes, Gene 207): -0.608 | AKT2 log2FC (Apoptosis genes, Gene 208): -0.554 | ALDH1A3 log2FC (Apoptosis genes, Gene 220): 0.149 | ALDOC log2FC (Apoptosis genes, Gene 230): -0.120 | ALK log2FC (Apoptosis genes, Gene 238): -0.050 | ALOX15B log2FC (Apoptosis genes, Gene 247): -0.102 | ANGPT1 log2FC (Apoptosis genes, Gene 284): -0.676 | SLC25A4 log2FC (Apoptosis genes, Gene 291): -0.331 | SLC25A5 log2FC (Apoptosis genes, Gene 292): 0.173 | ANXA1 log2FC (Apoptosis genes, Gene 301): 0.991 | ANXA4 log2FC (Apoptosis genes, Gene 307): 0.463 | ANXA5 log2FC (Apoptosis genes, Gene 308): 0.266 | APAF1 log2FC (Apoptosis genes, Gene 317): 0.550 | NUDT2 log2FC (Apoptosis genes, Gene 318): 0.291 | APBB2 log2FC (Apoptosis genes, Gene 323): -0.357 | APC log2FC (Apoptosis genes, Gene 324): 0.117 | BIRC3 log2FC (Apoptosis genes, Gene 330): -0.843 | BIRC5 log2FC (Apoptosis genes, Gene 332): 0.154 | APLP1 log2FC (Apoptosis genes, Gene 333): -0.281 | APOE log2FC (Apoptosis genes, Gene 348): -0.224 | APP log2FC (Apoptosis genes, Gene 351): 0.379 | FASLG log2FC (Apoptosis genes, Gene 356): -0.198 | AQP2 log2FC (Apoptosis genes, Gene 359): -0.102 | AR log2FC (Apoptosis genes, Gene 367): 0.203 | ARAF log2FC (Apoptosis genes, Gene 369): -0.542 | ARF6 log2FC (Apoptosis genes, Gene 382): -0.682 | RHOB log2FC (Apoptosis genes, Gene 388): -0.133 | ARHGAP4 log2FC (Apoptosis genes, Gene 393): -0.218 | ARHGDIA log2FC (Apoptosis genes, Gene 396): -1.118 | ARRB2 log2FC (Apoptosis genes, Gene 409): 0.237 | ASCL1 log2FC (Apoptosis genes, Gene 429): -0.107 | ASNS log2FC (Apoptosis genes, Gene 440): -0.404 | ATF4 log2FC (Apoptosis genes, Gene 468): 0.324 | ATM log2FC (Apoptosis genes, Gene 472): 0.117 | ATP2A1 log2FC (Apoptosis genes, Gene 487): 0.239 | AVP log2FC (Apoptosis genes, Gene 551): -0.579 | AXL log2FC (Apoptosis genes, Gene 558): -0.230 | AZU1 log2FC (Apoptosis genes, Gene 566): -0.123 | BAD log2FC (Apoptosis genes, Gene 572): 0.276 | BAG1 log2FC (Apoptosis genes, Gene 573): 1.170 | BAK1 log2FC (Apoptosis genes, Gene 578): -0.356 | BARD1 log2FC (Apoptosis genes, Gene 580): 0.487 | BAX log2FC (Apoptosis genes, Gene 581): -0.255 | BCL2 log2FC (Apoptosis genes, Gene 596): -0.310 | BCL2A1 log2FC (Apoptosis genes, Gene 597): -0.192 | BCL2L1 log2FC (Apoptosis genes, Gene 598): -0.991 | BCL2L2 log2FC (Apoptosis genes, Gene 599): 0.428 | BCL3 log2FC (Apoptosis genes, Gene 602): -0.569 | BCL6 log2FC (Apoptosis genes, Gene 604): 0.771 | BDNF log2FC (Apoptosis genes, Gene 627): -0.132 | BID log2FC (Apoptosis genes, Gene 637): -0.095 | BIK log2FC (Apoptosis genes, Gene 638): -0.815 | BLM log2FC (Apoptosis genes, Gene 641): 0.293 | BMP4 log2FC (Apoptosis genes, Gene 652): 0.407 | BMP7 log2FC (Apoptosis genes, Gene 655): -0.344 | BMPR1B log2FC (Apoptosis genes, Gene 658): -0.091 | BMX log2FC (Apoptosis genes, Gene 660): 0.114 | BNIP1 log2FC (Apoptosis genes, Gene 662): 0.672 | BNIP2 log2FC (Apoptosis genes, Gene 663): 0.527 | BNIP3 log2FC (Apoptosis genes, Gene 664): 0.774 | BNIP3L log2FC (Apoptosis genes, Gene 665): 1.085 | FOXL2 log2FC (Apoptosis genes, Gene 668): -0.812 | BRCA1 log2FC (Apoptosis genes, Gene 672): 0.792 | BRAF log2FC (Apoptosis genes, Gene 673): -0.105 | BRCA2 log2FC (Apoptosis genes, Gene 675): 0.092 | BTC log2FC (Apoptosis genes, Gene 685): 0.205 | BTG1 log2FC (Apoptosis genes, Gene 694): 1.142 | BUB1 log2FC (Apoptosis genes, Gene 699): 0.803 | BUB1B log2FC (Apoptosis genes, Gene 701): 0.344 | TSPO log2FC (Apoptosis genes, Gene 706): -0.089 | C5AR1 log2FC (Apoptosis genes, Gene 728): 0.064 | CACNA1A log2FC (Apoptosis genes, Gene 773): -0.187 | CALR log2FC (Apoptosis genes, Gene 811): -0.081 | CAMK2B log2FC (Apoptosis genes, Gene 816): -0.123 | CAST log2FC (Apoptosis genes, Gene 831): 0.572 | CASP1 log2FC (Apoptosis genes, Gene 834): 0.048 | CASP2 log2FC (Apoptosis genes, Gene 835): -0.918 | CASP3 log2FC (Apoptosis genes, Gene 836): 0.546 | CASP4 log2FC (Apoptosis genes, Gene 837): 0.181 | CASP5 log2FC (Apoptosis genes, Gene 838): -0.128 | CASP6 log2FC (Apoptosis genes, Gene 839): 0.574 | CASP7 log2FC (Apoptosis genes, Gene 840): -0.211 | CASP8 log2FC (Apoptosis genes, Gene 841): 0.613 | CASP9 log2FC (Apoptosis genes, Gene 842): 0.372 | CASR log2FC (Apoptosis genes, Gene 846): 0.039 | CAT log2FC (Apoptosis genes, Gene 847): 0.577 | CAV1 log2FC (Apoptosis genes, Gene 857): 0.205 | RUNX3 log2FC (Apoptosis genes, Gene 864): -0.494 | CBL log2FC (Apoptosis genes, Gene 867): 0.301 | CBS log2FC (Apoptosis genes, Gene 875): -0.275 | KRIT1 log2FC (Apoptosis genes, Gene 889): 0.668 | CCNG1 log2FC (Apoptosis genes, Gene 900): 0.908 | CD2 log2FC (Apoptosis genes, Gene 914): -0.352 | CD3E log2FC (Apoptosis genes, Gene 916): -0.399 | CD3G log2FC (Apoptosis genes, Gene 917): -0.295 | CD5 log2FC (Apoptosis genes, Gene 921): -0.055 | CD5L log2FC (Apoptosis genes, Gene 922): -0.110 | CD14 log2FC (Apoptosis genes, Gene 929): -0.514 | CD28 log2FC (Apoptosis genes, Gene 940): 0.087 | CD40 log2FC (Apoptosis genes, Gene 958): -0.420 | CD44 log2FC (Apoptosis genes, Gene 960): -0.380 | CD59 log2FC (Apoptosis genes, Gene 966): 0.286 | CD74 log2FC (Apoptosis genes, Gene 972): -0.135 | CDC34 log2FC (Apoptosis genes, Gene 997): 0.349 | CDC42 log2FC (Apoptosis genes, Gene 998): 0.143 | CDK4 log2FC (Apoptosis genes, Gene 1019): 0.113 | CDKN1A log2FC (Apoptosis genes, Gene 1026): -1.401 | CDKN1B log2FC (Apoptosis genes, Gene 1027): 1.129 | CDKN2A log2FC (Apoptosis genes, Gene 1029): 0.240 | CDKN2D log2FC (Apoptosis genes, Gene 1032): 0.891 | CEBPB log2FC (Apoptosis genes, Gene 1051): -0.358 | CFL1 log2FC (Apoptosis genes, Gene 1072): -0.261 | CTSC log2FC (Apoptosis genes, Gene 1075): -0.466 | CGB log2FC (Apoptosis genes, Gene 1082): -0.136 | CLU log2FC (Apoptosis genes, Gene 1191): -0.261 | CLN3 log2FC (Apoptosis genes, Gene 1201): -0.330 | CCR7 log2FC (Apoptosis genes, Gene 1236): 0.098 | PLK3 log2FC (Apoptosis genes, Gene 1263): -1.808 | CNR1 log2FC (Apoptosis genes, Gene 1268): 0.800 | ATF2 log2FC (Apoptosis genes, Gene 1386): 0.857 | CRH log2FC (Apoptosis genes, Gene 1392): 0.120 | CRIP1 log2FC (Apoptosis genes, Gene 1396): 0.282 | CRYAA log2FC (Apoptosis genes, Gene 1409): -0.057 | CRYAB log2FC (Apoptosis genes, Gene 1410): -0.139 | MAPK14 log2FC (Apoptosis genes, Gene 1432): -0.291 | CSE1L log2FC (Apoptosis genes, Gene 1434): 0.841 | CSF2 log2FC (Apoptosis genes, Gene 1437): -0.666 | CSNK2A1 log2FC (Apoptosis genes, Gene 1457): -0.545 | CSNK2A2 log2FC (Apoptosis genes, Gene 1459): 0.183 | CSTB log2FC (Apoptosis genes, Gene 1476): 0.083 | NKX2-5 log2FC (Apoptosis genes, Gene 1482): -0.753 | CTGF log2FC (Apoptosis genes, Gene 1490): -0.597 | CTH log2FC (Apoptosis genes, Gene 1491): 0.708
